In ChEMBL document CHEMBL4627270, “Design, synthesis and biological evaluation of novel carbamates as potential inhibitors of acetylcholinesterase and butyrylcholinesterase” (Bioorg Med Chem, 2020):

What was measured:
Cholinesterase [1] = biological target: Cholinesterase (Equus caballus, UniProt P81908); test: Inhibition of equine serum BChE using S-butyrylthiocholine iodide as substrate preincubated for 60 mins followed by substrate addition and measured for 5 mins by Ellman's method
Acetylcholinesterase [2] = biological target: Acetylcholinesterase (Electrophorus electricus, UniProt O42275); test: Inhibition of electric eel AChE using S-acetylthiocholine iodide as substrate preincubated for 60 mins followed by substrate addition and measured for 5 mins by Ellman's method
Cholinesterase [3] = biological target: T1, Cholinesterase (Homo sapiens, UniProt P06276); test: Inhibition of human plasma BChE using S-butyrylthiocholine iodide as substrate preincubated for 20 to 60 mins followed by substrate addition and measured for 5 mins by Ellman's method
Cholinesterase [4] = biological target: T1, Cholinesterase; test: Potency index, ratio of test compound to rivastigmine for inhibition of human plasma BChE assessed as second order carbamylation rate constant using S-butyrylthiocholine iodide as substrate
Cholinesterase [5] = biological target: T1, Cholinesterase; test: Inhibition of human plasma BChE using S-butyrylthiocholine iodide as substrate preincubated for 60 mins followed by substrate addition and measured for 5 mins by Ellman's method
Cholinesterase [6] = biological target: T1, Cholinesterase; test: Inhibition of human plasma BChE assessed as second order carbamylation rate constant using S-butyrylthiocholine iodide as substrate preincubated for 15 to 60 mins followed by substrate addition by Ellman's method
Cholinesterase [7] = biological target: T1, Cholinesterase; test: Inhibition of human plasma BChE assessed as decarbamylation rate constant using S-butyrylthiocholine iodide as substrate preincubated for 15 to 60 mins followed by substrate addition by Ellman's method
Cholinesterase [8] = biological target: T1, Cholinesterase; test: Inhibition of human plasma BChE at 2.5 to 25 nM using S-butyrylthiocholine iodide as substrate incubated prior to substrate addition and measured for 5 mins by Ellman's method; details: TDE = time-dependent effect
Acetylcholinesterase [9] = biological target: Acetylcholinesterase (Homo sapiens, UniProt P22303); test: Inhibition of human erythrocyte AChE using S-acetylthiocholine iodide as substrate preincubated for 60 mins followed by substrate addition and measured for 5 mins by Ellman's method
Cholinesterase [10] = biological target: T1, Cholinesterase; test: Inhibition of human plasma BChE at 15 to 100 nM using S-butyrylthiocholine iodide as substrate incubated prior to substrate measured for 5 mins by Ellman's method; details: TDE = time-dependent effect

Cholinesterase (Equus caballus, UniProt P81908), sequence (P81908 whole entry): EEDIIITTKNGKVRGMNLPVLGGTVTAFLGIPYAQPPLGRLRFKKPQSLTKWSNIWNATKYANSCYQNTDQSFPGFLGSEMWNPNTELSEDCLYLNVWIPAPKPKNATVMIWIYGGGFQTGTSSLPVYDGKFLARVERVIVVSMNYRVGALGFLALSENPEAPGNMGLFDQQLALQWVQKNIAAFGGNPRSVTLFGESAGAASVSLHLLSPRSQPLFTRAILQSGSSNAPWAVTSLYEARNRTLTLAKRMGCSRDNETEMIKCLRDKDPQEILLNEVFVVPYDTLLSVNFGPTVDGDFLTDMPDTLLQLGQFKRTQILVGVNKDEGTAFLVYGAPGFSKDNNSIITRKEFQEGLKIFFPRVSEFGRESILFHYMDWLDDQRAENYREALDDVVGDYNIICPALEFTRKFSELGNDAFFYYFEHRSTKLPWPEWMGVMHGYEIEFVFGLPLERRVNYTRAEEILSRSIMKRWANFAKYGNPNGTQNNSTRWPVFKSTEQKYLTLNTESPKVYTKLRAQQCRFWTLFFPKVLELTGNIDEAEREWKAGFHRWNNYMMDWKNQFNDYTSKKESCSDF
T1 sequence (P06276 whole entry): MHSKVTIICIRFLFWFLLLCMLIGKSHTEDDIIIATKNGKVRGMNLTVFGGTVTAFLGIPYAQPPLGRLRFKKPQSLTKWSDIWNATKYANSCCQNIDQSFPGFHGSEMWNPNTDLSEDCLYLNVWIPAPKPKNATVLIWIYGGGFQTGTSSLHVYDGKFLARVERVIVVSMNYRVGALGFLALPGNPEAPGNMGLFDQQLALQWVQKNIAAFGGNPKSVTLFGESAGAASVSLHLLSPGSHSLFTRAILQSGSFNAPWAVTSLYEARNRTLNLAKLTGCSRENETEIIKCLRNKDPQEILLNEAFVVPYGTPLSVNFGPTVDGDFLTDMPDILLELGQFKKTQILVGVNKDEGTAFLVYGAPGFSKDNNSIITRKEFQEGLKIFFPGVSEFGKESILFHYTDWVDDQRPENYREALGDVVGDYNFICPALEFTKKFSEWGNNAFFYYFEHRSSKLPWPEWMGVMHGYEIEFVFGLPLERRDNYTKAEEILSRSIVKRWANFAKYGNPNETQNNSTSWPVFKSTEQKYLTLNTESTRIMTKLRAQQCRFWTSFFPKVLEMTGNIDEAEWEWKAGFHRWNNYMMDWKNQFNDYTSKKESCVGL
Acetylcholinesterase (Electrophorus electricus, UniProt O42275), sequence (O42275 whole entry): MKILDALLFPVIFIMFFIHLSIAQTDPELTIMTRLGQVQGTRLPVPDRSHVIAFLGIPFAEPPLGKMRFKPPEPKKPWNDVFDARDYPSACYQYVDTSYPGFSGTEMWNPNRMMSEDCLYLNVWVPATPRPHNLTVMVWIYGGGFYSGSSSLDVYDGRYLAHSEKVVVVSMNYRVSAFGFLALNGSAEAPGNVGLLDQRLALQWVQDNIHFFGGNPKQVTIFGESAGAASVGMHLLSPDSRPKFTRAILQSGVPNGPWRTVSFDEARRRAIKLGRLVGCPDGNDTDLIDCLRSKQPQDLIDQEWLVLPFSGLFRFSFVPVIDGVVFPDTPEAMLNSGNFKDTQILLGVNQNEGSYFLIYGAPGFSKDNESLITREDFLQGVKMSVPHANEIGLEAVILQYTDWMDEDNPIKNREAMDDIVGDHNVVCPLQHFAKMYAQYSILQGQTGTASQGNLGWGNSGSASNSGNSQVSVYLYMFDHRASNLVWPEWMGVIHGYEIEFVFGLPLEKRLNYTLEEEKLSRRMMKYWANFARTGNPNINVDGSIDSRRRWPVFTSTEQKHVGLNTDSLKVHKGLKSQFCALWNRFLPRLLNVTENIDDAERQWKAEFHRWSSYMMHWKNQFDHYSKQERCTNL
Acetylcholinesterase (Homo sapiens, UniProt P22303), sequence (P22303 whole entry): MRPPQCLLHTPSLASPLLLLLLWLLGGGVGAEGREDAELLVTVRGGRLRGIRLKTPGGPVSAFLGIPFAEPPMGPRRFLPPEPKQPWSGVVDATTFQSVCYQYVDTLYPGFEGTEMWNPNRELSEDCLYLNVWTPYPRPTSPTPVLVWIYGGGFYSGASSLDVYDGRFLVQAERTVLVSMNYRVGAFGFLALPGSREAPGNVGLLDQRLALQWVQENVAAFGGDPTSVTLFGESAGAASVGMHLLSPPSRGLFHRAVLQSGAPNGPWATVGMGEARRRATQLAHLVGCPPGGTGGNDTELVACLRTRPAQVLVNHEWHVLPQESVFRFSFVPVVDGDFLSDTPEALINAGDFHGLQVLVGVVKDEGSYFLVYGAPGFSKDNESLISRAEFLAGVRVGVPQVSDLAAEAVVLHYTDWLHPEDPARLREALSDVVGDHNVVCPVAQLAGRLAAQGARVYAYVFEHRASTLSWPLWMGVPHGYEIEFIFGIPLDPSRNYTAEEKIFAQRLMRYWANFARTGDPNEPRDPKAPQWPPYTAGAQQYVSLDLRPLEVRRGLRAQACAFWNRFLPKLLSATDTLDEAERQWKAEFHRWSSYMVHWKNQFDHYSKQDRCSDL

SMILES | IC50 (Cholinesterase [1]) [nM] | IC50 (Acetylcholinesterase [2]) [nM] | also measured
CN(C)C(=O)Oc1cccc(C(O)CN2CCCCC2)c1 (stereo not drawn) | 97 | 3740 | –
CN(C)C(=O)Oc1cccc(C(O)CNc2ccc(F)cc2)c1 (stereo not drawn) | 194 | 45400 | –
CN(C)C(=O)Oc1cccc(C(O)CNC2CCCC2)c1 (stereo not drawn) | 57 | 1390 | –
CN(C)C(=O)Oc1ccc(C(O)CN2CCCCC2)cc1 (stereo not drawn) | 245 | 3510 | –
CN(C)C(=O)Oc1cccc(C(O)CNC2CCCCC2)c1 (stereo not drawn) | 8 | 1870 | inhibition (Cholinesterase [3]): Dose-dependent effect; Ratio (Cholinesterase [4]): 10; IC50 (Cholinesterase [5]): 2200 nM; K (Cholinesterase [6]): 1110 ×10⁴ /M/min; K (Cholinesterase [7]): 18.9 ×10⁻³ /min; inhibition (Cholinesterase [8]): Tde; IC50 (Acetylcholinesterase [9]): 792000 nM
CN(C)C(=O)Oc1cccc(C(O)CN2CCCC2)c1 (stereo not drawn) | 179 | 3150 | –
CN(C)C(=O)Oc1cccc(C(O)CNC(C)(C)C)c1 (stereo not drawn) | 383 | 6080 | –
CN(C)C(=O)Oc1ccc(C(O)CNC2CCCCC2)cc1 (stereo not drawn) | 27 | 655 | inhibition (Cholinesterase [3]): Dose-dependent effect; Ratio (Cholinesterase [4]): 20; IC50 (Cholinesterase [5]): 10600 nM; K (Cholinesterase [6]): 206 ×10⁴ /M/min; K (Cholinesterase [7]): 14.8 ×10⁻³ /min; IC50 (Acetylcholinesterase [9]): 266000 nM; inhibition (Cholinesterase [10]): Tde
C#Cc1cccc(NCC(O)c2cccc(OC(=O)N(C)C)c2)c1 (stereo not drawn) | 154 | 70500 | –
CN(C)C(=O)Oc1cccc(C(O)CN2CCOCC2)c1 (stereo not drawn) | 2190 | > 100000 | –
CN(C)C(=O)Oc1cccc(C(O)CNc2ccc(I)cc2)c1 (stereo not drawn) | 381 | 28900 | –
CN(C)C(=O)Oc1cccc(C(O)CNC(C)(C)c2ccccc2)c1 (stereo not drawn) | 303 | 7120 | –
CCN(C)C(=O)Oc1cccc([C@H](C)N(C)C)c1 | – | – | K (Cholinesterase [6]): 33.3 ×10⁴ /M/min; K (Cholinesterase [7]): 2.3 ×10⁻³ /min
CCC(C)(C)NCC(O)c1ccc(OC(=O)N(C)C)cc1 (stereo not drawn) | 1570 | 15900 | –
CN(C)C(=O)Oc1ccc(C(O)CNC(C)(C)C)cc1 (stereo not drawn) | 5370 | 15000 | –
CCC(C)(C)NCC(O)c1cccc(OC(=O)N(C)C)c1 (stereo not drawn) | 180 | 4150 | –
CN(C)C(=O)Oc1cccc(C(O)CNc2ccccc2)c1 (stereo not drawn) | 282 | 67500 | –
